The results in this text go back to patent US20050032873A1, “3-Amino chroman and 2-amino tetralin derivatives” (Wyeth, priority 2003, published 2005).

The target in one data set is T1, serotonin transporter (Rattus norvegicus, UniProt P31652).
T1 construct: displace ^3H-paroxetine from male rat cortical membranes; from tissue; host or cells: male rat cortical membranes
The data set can be described thus: 5-HT transporter affinity: displacement of 3H-paroxetine from male rat cortical membranes. Particulars: displacement of 3H-paroxetine; male rat cortical membranes; read-out: 5-HT Transporter Affinity Ki. The format is binding. (In general: Displacement assays read how much labelled ligand stays bound in the presence of the test substance.)

In data set [1] the target is T2, 5-HT1A receptor (Homo sapiens, UniProt P08908).
T2 sequence (P08908 1-422): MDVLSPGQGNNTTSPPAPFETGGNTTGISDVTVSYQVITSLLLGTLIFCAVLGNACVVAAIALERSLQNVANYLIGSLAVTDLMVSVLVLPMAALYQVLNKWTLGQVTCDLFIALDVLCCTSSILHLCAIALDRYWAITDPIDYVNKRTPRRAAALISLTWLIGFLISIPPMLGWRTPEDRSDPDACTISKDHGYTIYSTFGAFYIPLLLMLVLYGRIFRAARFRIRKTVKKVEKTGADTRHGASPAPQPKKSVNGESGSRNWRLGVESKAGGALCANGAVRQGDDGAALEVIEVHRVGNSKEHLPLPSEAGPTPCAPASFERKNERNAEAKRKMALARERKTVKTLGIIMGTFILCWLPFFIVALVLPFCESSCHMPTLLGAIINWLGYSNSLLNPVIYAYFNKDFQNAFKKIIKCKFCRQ
Briefly: 5-HT1A receptor affinity: displacement of [3H] 8-OH-DPAT. The class given is binding. Details: expressed in transfected cells. The conditions noted are these: displacement of [3H] 8-OH-DPAT; CHO cells stably transfected with human 5-HT1A receptors; read-out: 5-HT1A Receptor Affinity Ki.

Data set [2] concerns the target T2, 5-HT1A receptor. The data set can be described thus: cAMP accumulation assay, 5-HT1A function. The format is cell-based. Particulars: for IC50: cells marked IC50 (antagonist), read-out: 5-HT1A Function cAMP IC50; for Emax / 5-HT1A Function cAMP (Emax): in brackets after EC50 or IC50; for Emax: read-out: 5-HT1A Function cAMP (Emax); for EC50: cells marked EC50 (agonist). (In general: Cyclic AMP is a second messenger, typically raised through Gs and lowered through Gi signalling.)

Data set [3] addresses T3, cloned human 5-HT1A receptors (Homo sapiens, UniProt P08908).
T3 construct: expressed in transfected cells
T3 sequence (P08908 1-422): T2 sequence (P08908 1-422)
The data set can be described thus: 35S-GTPγS binding assay, 5-HT1A function. The class given is biochemical. The conditions noted are these: for IC50: antagonist potency, reversal of 8-OH-DPAT, read-out: 5-HT1A Function GTPγS IC50; for EC50: agonist potency. For orientation: GTPγS is a poorly hydrolysed GTP analogue; its binding reports G protein activation.
Source text: The agonist or antagonist activity at 5-HT1A receptors was established by using two different assays. […] Agonists produce an increase in binding whereas antagonists produce no increase but rather reverse the effects of the standard agonist 8-OH-DPAT. The test compound's maximum stimulatory effect is represented as the Emax, while its potency is defined by the EC50. The test compound's maximum inhibitory effect is represented as the Imax, while its potency is defined by the IC50. The second assay measured cAMP accumulation upon binding of the ligand to the 5-HT1A receptor. […] The test compound's maximum stimulatory or inhibitory effect is represented as the Emax while its potency is defined by either IC50 for an antagonist or EC50 for an agonist. [^3H]-8-OH-DPAT was used to determine maximum agonist or antagonist response in both functional assays.

Setting [4] is: maximum inhibitory effect, in brackets after IC50, read-out: 5-HT1A Function GTPγS (Imax).
[5] abbreviates: maximum stimulatory effect, in brackets after EC50, read-out: 5-HT1A Function GTPγS (Emax).

Structures are written as SMILES. Counter-ions that a name gives are not always drawn. Like-named read-outs stand apart in the source and are kept apart here.

T1 sequence (P31652 whole entry): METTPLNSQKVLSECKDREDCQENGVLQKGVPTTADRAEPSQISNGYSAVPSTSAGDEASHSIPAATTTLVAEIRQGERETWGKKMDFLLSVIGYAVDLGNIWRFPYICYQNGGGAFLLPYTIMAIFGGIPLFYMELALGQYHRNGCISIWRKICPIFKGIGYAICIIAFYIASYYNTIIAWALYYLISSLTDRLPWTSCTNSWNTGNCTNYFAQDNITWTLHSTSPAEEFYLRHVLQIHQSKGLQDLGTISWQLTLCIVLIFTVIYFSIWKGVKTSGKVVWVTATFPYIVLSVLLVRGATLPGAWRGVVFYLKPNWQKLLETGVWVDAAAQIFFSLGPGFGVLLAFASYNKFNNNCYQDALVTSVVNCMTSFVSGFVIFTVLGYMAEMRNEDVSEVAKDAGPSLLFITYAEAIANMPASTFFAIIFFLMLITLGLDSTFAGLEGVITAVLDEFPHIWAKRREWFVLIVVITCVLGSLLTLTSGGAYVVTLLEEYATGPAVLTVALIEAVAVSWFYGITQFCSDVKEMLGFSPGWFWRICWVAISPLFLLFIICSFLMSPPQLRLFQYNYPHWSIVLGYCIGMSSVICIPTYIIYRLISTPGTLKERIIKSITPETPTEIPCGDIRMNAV

For the compound `COc1cccc2c(CCCN(CC3CC3)C3COc4c(F)ccc(C(N)=O)c4C3)coc12` (stereo not shown) (as salt: hydrochloride) [Compound 165, 3-{(cyclopropylmethyl)[3-(7-methoxy-1-benzofuran-3-yl)propyl]amino}-8-fluorochromane-5-carboxamide], the melting point – broadly, the temperature, or range, at which the solid turns liquid – fell in the range of 125 to 132 °C.

`NC(=O)c1ccc(F)c2c1CC(N(CCCc1c[nH]c3ccc(Cl)cc13)CC1CC1)CO2` (stereo not shown) (as salt: hydrochloride) [Compound 118, 3-[[3-(5-chloro-1H-indol-3-yl)propyl](cyclopropylmethyl)amino]-8-fluorochromane-5-carboxamide]: the melting point is 150 to 158 °C (dec.).

For the compound `CCN(CCCc1coc2c(OC)cccc12)C1COc2c(F)ccc(C(N)=O)c2C1` (stereo not shown) (as salt: hydrochloride) [Compound 162, 3-{ethyl[3-(7-methoxy-1-benzofuran-3-yl)propyl]amino}-8-fluorochromane-5-carboxamide], the melting point was 125 to 128 °C.

As for `CCN(CCCCc1coc2ccccc12)C1COc2cccc(OC)c2C1` (stereo not shown) (as salt: hydrochloride) [Compound 22, N-[4-(1-benzofuran-3-yl)butyl]-N-ethyl-N-(5-methoxy-3,4-dihydro-2H-chromen-3-yl)amine], the melting point was in the range of 152 to 154 °C.

Turning to `NC(=O)c1ccc(F)c2c1CC(NCCCc1c[nH]c3ccc(F)cc13)CO2` (single isomer, unassigned; (-)) (as salt: hydrochloride) [Compound 1b, (−)-8-fluoro-3-{[3-(5-fluoro-1H-indol-3-yl)propyl]amino}chromane-5-carboxamide], the melting point is 87 °C (dec.).

In the case of `CNC(=O)c1ccc(F)c2c1CC(N(CCCc1c[nH]c3ccc(F)cc13)CC1CC1)CO2` (stereo not shown) (as salt: hydrochloride) [Compound 91, 3-{(cyclopropylmethyl)[3-(5-fluoro-1H-indol-3-yl)propyl]amino}-8-fluoro-N-methylchromane-5-carboxamide], the melting point is 120 °C (dec.).

On to `NC(=O)c1ccc(F)c2c1CC(N(CCCc1c[nH]c3ccc(Cl)cc13)C1CCC1)CO2` (stereo not shown) (as salt: hydrochloride) [Compound 117, 3-[[3-(5-chloro-1H-indol-3-yl)propyl](cyclobutyl)amino]-8-fluorochromane-5-carboxamide], for which the melting point was 152 to 160 °C (dec.).

For `COc1cccc2c(CCCN(C3CCC3)C3COc4c(F)ccc(C(N)=O)c4C3)coc12` (stereo not shown) (as salt: hydrochloride) [Compound 164, 3-{cyclobutyl[3-(7-methoxy-1-benzofuran-3-yl)propyl]amino}-8-fluorochromane-5-carboxamide], the melting point was 131 to 140 °C (dec.).

In turn, `COc1cccc2c(CCCNC3COc4c(F)ccc(C(N)=O)c4C3)c[nH]c12` (stereo not shown) (as salt: hydrochloride) [Compound 99, 8-fluoro-3-{[3-(7-methoxy-1H-indol-3-yl)propyl]amino}chromane-5-carboxamide] came in with a melting point of 196 to 198 °C.

In the case of `NC(=O)c1ccc(F)c2c1OCC(NCCCc1c[nH]c3ccc(F)cc13)C2` (stereo not shown) (as salt: hydrochloride) [Compound 119, 5-fluoro-3-{[3-(5-fluoro-1H-indol-3-yl)propyl]amino}chromane-8-carboxamide], the melting point was 124 °C (dec.).

As for `NC(=O)c1ccc(F)c2c1OCC(N(CCCCc1c[nH]c3ccc(F)cc13)CC1CC1)C2` (stereo not shown) (as salt: hydrochloride) [Compound 125, 3-{(cyclopropylmethyl)[4-(5-fluoro-1H-indol-3-yl)butyl]amino}-5-fluorochromane-8-carboxamide], the melting point was 116 °C (dec.).

With `NC(=O)c1ccc(F)c2c1OCC(N(CCCc1c[nH]c3c(F)cc(F)cc13)CC1CC1)C2` (stereo not shown) (as salt: hydrochloride) [Compound 130, 3-{(cyclopropylmethyl)[3-(5,7-difluoro-1H-indol-3-yl)propyl]amino}-5-fluorochromane-8-carboxamide], the melting point is 124 °C (dec.).

Consider `CNC(=O)c1ccc(F)c2c1C[C@@H](N(CCCCc1c[nH]c3ccc(F)cc13)C1CCC1)CO2` (as salt: hydrochloride) [Compound 145b, (3R)-3-{cyclobutyl[4-(5-fluoro-1H-indol-3-yl)butyl]amino}-8-fluoro-N-methylchromane-5-carboxamide], for which the melting point was 125 °C (dec.).

`NC(=O)c1ccc(F)c2c1CC(N(CCCc1c[nH]c3ccc(Cl)cc13)C1CCC1)CO2` (stereo not shown) [Compound 117, 3-[[3-(5-chloro-1H-indol-3-yl)propyl](cyclobutyl)amino]-8-fluorochromane-5-carboxamide]: the values for the Ki on serotonin transporter and at 5-HT1A receptor [1] were 75.5 nM and 3.98 nM, respectively. The IC50 (commonly the concentration needed to halve the response being measured) on 5-HT1A receptor [2] stood at 272 nM; in data set [3] it was 735 nM. Further, the Emax was determined as 0% on 5-HT1A receptor [2] and 100% in data set [3] (setting [4]).

For the compound `CCN(CCCc1csc2ccccc12)C1COc2cccc(OC)c2C1` (stereo not shown) [Compound 18, N-[3-(1-benzothien-3-yl)propyl]-N-ethyl-5-methoxychroman-3-amine], the Ki (commonly the dissociation constant of the complex between target and ligand, obtained from inhibition or displacement) on serotonin transporter worked out at 127 nM; at 5-HT1A receptor [1], 3.72 nM. The EC50 (usually the concentration that produces a half-maximal response) came to 11 nM on 5-HT1A receptor [2] and 232 nM in data set [3]. In addition, the Emax on 5-HT1A receptor [2] was 93.5%; in data set [3] (setting [5]), 100%.

With `NC(=O)c1ccc(F)c2c1CC(NCCCc1c[nH]c3ccc(Cl)cc13)CO2` (stereo not shown) [Compound 114, 3-{[3-(5-chloro-1H-indol-3-yl)propyl]amino}-8-fluorochromane-5-carboxamide], the Ki on serotonin transporter was determined as 69.5 nM; at 5-HT1A receptor [1] it was 97 nM. Further, the EC50 on 5-HT1A receptor [2] stood at 244 nM; in data set [3], 1320 nM. The Emax on 5-HT1A receptor [2] came out at 67.5%; in data set [3] (setting [5]) it was 64%.

As to `NC(=O)c1ccc(F)c2c1CC(N(CCCc1c[nH]c3c(F)cc(F)cc13)C1CCC1)CO2` (single isomer, unassigned; (+)) [Compound 9b, (+)-3-{cyclobutyl[3-(5,7-difluoro-1H-indol-3-yl)propyl]amino}-8-fluorochromane-5-carboxamide], the Ki on serotonin transporter was determined as 12.2 nM; at 5-HT1A receptor [1], 68.9 nM. Further, the half-maximal inhibitory concentration (IC50) at 5-HT1A receptor [2] came out at 197 nM; in data set [3], 6000 nM. The compound further displayed a 5-HT1A Function cAMP (Emax) at 5-HT1A receptor [2] of 0%. The 5-HT1A Function GTPγS (Imax) in data set [3] (maximum inhibitory effect, in brackets after IC50) is 74%.

In the case of `COC(=O)c1ccc(F)c2c1CC(N(CCCc1c[nH]c3ccc(F)cc13)C1CCC1)CO2` (stereo not shown) [Compound 11, Methyl 3-{cyclobutyl[3-(5-fluoro-1H-indol-3-yl)propyl]amino}-8-fluorochromane-5-carboxylate], the results for the Ki on serotonin transporter and at 5-HT1A receptor [1] were 161 nM and 73.8 nM, respectively. Also, the IC50 on 5-HT1A receptor [2] is 403 nM; in data set [3], 345 nM. The Emax was 0% on 5-HT1A receptor [2] and 62% in data set [3] (setting [4]).

In the case of `NC(=O)c1cccc2c1C[C@H](NCCCc1c[nH]c3ccc(F)cc13)CO2` [Compound 133a, (3S)-3-{[3-(5-fluoro-1H-indol-3-yl)propyl]amino}chromane-5-carboxamide], the inhibition constant Ki on serotonin transporter came out at 28.5 nM; on 5-HT1A receptor [1], 51.8 nM. Further, the EC50 at 5-HT1A receptor [2] was found to be 128 nM; in data set [3] it was 5000 nM. Besides, the results for the Emax (at 5-HT1A receptor [2]; in data set [3] (setting [5])) were 53% and 60%, respectively.

Turning to `CCCN(CCCc1c[nH]c2ccc(F)cc12)C1CCc2c(F)ccc(OC)c2C1` (single isomer, unassigned; (+)) [Compound 51a, (+)-5-fluoro-N-[3-(5-fluoro-1H-indol-3-yl)propyl]-8-methoxy-N-propyl-1,2,3,4-tetrahydro-2-naphthalenamine], the Ki worked out at 1.15 nM at serotonin transporter and 1.71 nM on 5-HT1A receptor [1]. The EC50 was 16.5 nM on 5-HT1A receptor [2] and 13 nM in data set [3]. Further, the 5-HT1A Function cAMP (Emax) at 5-HT1A receptor [2] was 100%. Moreover, in data set [3] (setting [5]), the Emax turned out to be 69%.

`COC(=O)c1cccc2c1CC(NCCCc1c[nH]c3c(F)cc(F)cc13)CO2` (stereo not shown) [Compound 135, Methyl 3-{[3-(5,7-difluoro-1H-indol-3-yl)propyl]amino}chromane-5-carboxylate]: the figures for the Ki at serotonin transporter and on 5-HT1A receptor [1] were 58 nM and 19.9 nM, respectively. Besides, the EC50 at 5-HT1A receptor [2] was determined as 274 nM; in data set [3], 441 nM. Besides, the Emax at 5-HT1A receptor [2] is 98%; in data set [3] (setting [5]), 100%.

Consider `NC(=O)c1ccc(F)c2c1CC(N(CCCCn1ccc3ccc(F)cc31)CC1CC1)CO2` (stereo not shown) [Compound 195, 3-{(Cyclopropylmethyl)[4-(6-fluoro-1H-indol-1-yl)butyl]amino}-8-fluorochromane-5-carboxamide], for which the results for the Ki at serotonin transporter and on 5-HT1A receptor [1] were 12.5 nM and 3.25 nM, respectively. On 5-HT1A receptor [2], this compound gave a half-maximal effective concentration (EC50) of 21.9 nM. For the same compound, the Emax at 5-HT1A receptor [2] came to 58%; in data set [3] (setting [4]), 100%. The IC50 in data set [3] amounted to 371 nM.
